Calls of active or inactive are those of the source. No cut-off for these calls is given here.
Key:
[1] = system: Rattus norvegicus; assay: Diuretic activity in normotensive Wistar rat assessed as urine pH at 3 mg/kg, po administered via gavage after 8 hrs (reference value: 6.14 to 6.21); type: functional
[2] = system: Rattus norvegicus; assay: Diuretic activity in normotensive Wistar rat assessed as urinary calcium excretion at 3 mg/kg, po administered via gavage after 8 hrs (reference value: 5.93 to 6.87 mg/dl); type: functional
[3] = system: Rattus norvegicus; assay: Diuretic activity in normotensive Wistar rat assessed as urinary chloride excretion at 3 mg/kg, po administered via gavage after 8 hrs (reference value: 135.10 to 143.70 mmol/L); type: functional
[4] = system: Rattus norvegicus; assay: Diuretic activity in normotensive Wistar rat assessed as urine conductivity at 3 mg/kg, po administered via gavage after 8 hrs (reference value: 19.54 +/- 0.98 mS/cm); type: functional
[5] = system: Rattus norvegicus; assay: Diuretic activity in normotensive Wistar rat assessed as urinary sodium excretion at 3 mg/kg, po administered via gavage after 8 hrs (reference value: 61.82 to 80.81 mmol/L); type: functional
[6] = system: Rattus norvegicus; assay: Diuretic activity in spontaneous hypertensive Wistar rat assessed as increase in urinary chloride excretion at 10 mg/kg, po administered via gavage for 7 days; type: functional, organism-based
[7] = system: Rattus norvegicus; assay: Diuretic activity in normotensive Wistar rat assessed as increase in urine volume at 10 mg/kg, po administered via gavage for 7 days; type: functional, organism-based
[8] = system: Rattus norvegicus; assay: Anti-urolithic activity in normotensive Wistar rats assessed as reduction in CaOx crystal formation in cumulative urine at 10 mg/kg, po administered via gavage in presence of sodium oxalate by Neubauer counting chamber method relative to control; type: functional; set-up: scale not given: the % may be the effect or the level left
[9] = system: Rattus norvegicus; assay: Renal protective activity in spontaneous hypertensive Wistar rat assessed as reduction in hypertension-induced glomerular size at 10 mg/kg, po administered via gavage for 7 days by hematoxylin and eosin staining based microscopic analysis; type: functional, organism-based
[10] = system: Rattus norvegicus; assay: Diuretic activity in normotensive Wistar rat assessed as decrease in urinary calcium excretion at 10 mg/kg, po administered via gavage for 7 days; type: functional, organism-based
[11] = system: Rattus norvegicus; assay: Diuretic activity in normotensive Wistar rat assessed as urinary potassium excretion at 10 mg/kg, po administered via gavage after 8 hrs (reference value: 22.39 to 24.21 mmol/L); type: ADME, organism-based; conditions: in vivo
[12] = system: Rattus norvegicus; assay: Diuretic activity in normotensive Wistar rat assessed as increase in urinary chloride excretion at 10 mg/kg, po administered via gavage for 7 days; type: functional, organism-based
[13] = system: Rattus norvegicus; assay: Renal protective activity in spontaneous hypertensive Wistar rat assessed as reduction in hypertension-induced mesangial space disarrangement at 10 mg/kg, po administered via gavage for 7 days by hematoxylin and eosin staining based microscopic analysis; type: functional, organism-based
[14] = system: Rattus norvegicus; assay: Diuretic activity in normotensive Wistar rat assessed as increase in urinary sodium excretion at 10 mg/kg, po administered via gavage for 7 days; type: functional, organism-based
[15] = system: Rattus norvegicus; assay: Renal protective activity in spontaneous hypertensive Wistar rat assessed as reduction in hypertension-induced Bowman's capsule thickening at 10 mg/kg, po administered via gavage for 7 days by hematoxylin and eosin staining based microscopic analysis; type: functional, organism-based
[16] = system: Rattus norvegicus; assay: In vivo antioxidant activity in Wistar rat model of hypertension-induced oxidative stress assessed as reduction in nitrite level in renal tissue at 10 mg/kg, po administered via gavage for 7 days by Griess reagent based assay; type: functional, organism-based
[17] = system: Rattus norvegicus; assay: Diuretic activity in spontaneous hypertensive Wistar rat assessed as increase in urinary potassium excretion at 10 mg/kg, po administered via gavage for 7 days; type: ADME, organism-based; conditions: in vivo, 168 h
[18] = system: Rattus norvegicus; assay: In vivo antioxidant activity in Wistar rat model of hypertension-induced oxidative stress assessed as reduction in reactive oxygen species generation in renal tissue at 10 mg/kg, po administered via gavage for 7 days by DCFH-DA probe based fluorimetric assay; type: functional, organism-based
[19] = system: Rattus norvegicus; assay: Diuretic activity in normotensive Wistar rat assessed as urinary sodium excretion at 10 mg/kg, po administered via gavage after 8 hrs (reference value: 61.82 to 80.81 mmol/L); type: functional
[20] = system: Rattus norvegicus; assay: Diuretic activity in normotensive Wistar rat assessed as urinary calcium excretion at 10 mg/kg, po administered via gavage after 8 hrs (reference value: 5.93 to 6.87 mg/dl); type: functional
[21] = system: Rattus norvegicus; assay: Diuretic activity in spontaneous hypertensive Wistar rat assessed as increase in urine volume at 10 mg/kg, po administered via gavage for 7 days; type: functional, organism-based
[22] = system: Rattus norvegicus; assay: Diuretic activity in spontaneous hypertensive Wistar rat assessed as decrease in urinary calcium excretion at 10 mg/kg, po administered via gavage for 7 days; type: functional, organism-based
[23] = system: Rattus norvegicus; assay: Diuretic activity in spontaneous hypertensive Wistar rat assessed as increase in urinary sodium excretion at 10 mg/kg, po administered via gavage for 7 days; type: functional, organism-based
[24] = system: Rattus norvegicus; assay: Diuretic activity in normotensive Wistar rat assessed as increase in urinary potassium excretion at 10 mg/kg, po administered via gavage for 7 days; type: ADME, organism-based; conditions: in vivo, 168 h
[25] = system: Rattus norvegicus; assay: Anti-urolithic activity in spontaneous hypertensive Wistar rats assessed as reduction in CaOx crystal formation in cumulative urine at 10 mg/kg, po administered via gavage in presence of sodium oxalate by Neubauer counting chamber method relative to control; type: functional; set-up: scale not given: the % may be the effect or the level left
[26] = system: Rattus norvegicus; assay: Diuretic activity in normotensive Wistar rat assessed as urinary chloride excretion at 10 mg/kg, po administered via gavage after 8 hrs (reference value: 135.10 to 143.70 mmol/L); type: functional
[27] = system: Rattus norvegicus; assay: Diuretic activity in normotensive Wistar rat assessed as urine conductivity at 10 mg/kg, po administered via gavage after 8 hrs (reference value: 19.54 +/- 0.98 mS/cm); type: functional
[28] = system: Rattus norvegicus; assay: Diuretic activity in normotensive Wistar rat assessed as increase in urine volume excretion at 0.1 to 1 mg/kg, ip measured up to 8 hrs; type: functional, organism-based
[29] = system: Rattus norvegicus; assay: Diuretic activity in normotensive Wistar rat assessed as increase in urine volume excretion at 0.1 to 1 mg/kg, po administered via gavage measured up to 8 hrs; type: functional, organism-based
[30] = system: Rattus norvegicus; assay: Diuretic activity in normotensive Wistar rat assessed as modification of urinary potassium excretion at 0.1 to 1 mg/kg, po administered via gavage measured up to 8 hrs; type: ADME, organism-based; conditions: in vivo
[31] = system: Rattus norvegicus; assay: Diuretic activity in normotensive Wistar rat assessed as modification of urinary sodium excretion at 0.1 to 1 mg/kg, po administered via gavage measured up to 8 hrs; type: functional, organism-based
[32] = system: Rattus norvegicus; assay: Diuretic activity in normotensive Wistar rat assessed as modification of urinary calcium excretion at 0.1 to 1 mg/kg, po administered via gavage measured up to 8 hrs; type: functional, organism-based
[33] = system: Rattus norvegicus; assay: Diuretic activity in normotensive Wistar rat assessed as modification of urinary chloride excretion at 0.1 to 1 mg/kg, po administered via gavage measured up to 8 hrs; type: functional, organism-based
[34] = Anti-urolithic activity in synthetic urine assessed as decrease in absorbance at 10 mg/mL after 30 mins relative to control; type: functional; set-up: scale not given: the % may be the effect or the level left
[35] = Anti-urolithic activity in synthetic urine assessed as decrease in absorbance at 10 mg/mL after 60 mins relative to control; type: functional; set-up: scale not given: the % may be the effect or the level left
[36] = Anti-urolithic activity in synthetic urine assessed as reduction in CaOx crystal formation at 10 mg/mL in presence of sodium oxalate after 60 mins by Neubauer counting chamber method relative to control; type: functional; set-up: scale not given: the % may be the effect or the level left
[37] = Anti-urolithic activity in synthetic urine assessed as decrease in absorbance at 10 mg/mL relative to control; type: functional; set-up: scale not given: the % may be the effect or the level left
[38] = system: Rattus norvegicus; assay: Diuretic activity in normotensive Wistar rat assessed as urine pH at 20 mg/kg, po administered via gavage after 8 hrs (reference value: 6.14 to 6.21); type: functional

With N=C(N)NC(=O)c1nc(Cl)c(N)nc1N [AMILORIDE] as the compound, how does the pH [1] read?
Its pH is 6.29.

And the Activity [2]?
The Activity was 5.7 mg/dL.

And the Activity [3]?
Its Activity is 170.5 mmol/L.

What about the Activity [4] of the same compound?
Its Activity is 18.23 mS/cm.

And the Activity [5]?
Its Activity is 117.2 mmol/L.

With NS(=O)(=O)c1cc2c(cc1Cl)NCNS2(=O)=O [HYDROCHLOROTHIAZIDE] as the compound, how does the Activity [6] read?
Its Activity is “Active”.

And the Activity [7]?
The Activity was “Active”.

And the Activity [8]?
The Activity was 89.04%.

And the Activity [9]?
Its Activity is “Active”.

And the Activity [10]?
Its Activity is “Active”.

What about the Activity [11] of the same compound?
The Activity was 41 to 44.8 mmol/L.

And the Activity [12]?
Its Activity is “Active”.

What about the Activity [13] of the same compound?
Its Activity is “Active”.

And the Activity [14]?
Its Activity is “Active”.

What about the Activity [15] of the same compound?
Its Activity is “Active”.

And the Activity [16]?
The Activity was “Active”.

And the Activity [17]?
The Activity was “Toxic”.

And the Activity [18]?
Its Activity is “Active”.

What about the Activity [19] of the same compound?
The Activity was 175.7 to 185.7 mmol/L.

What about the Activity [20] of the same compound?
The Activity was 4.78 to 5.24 mg/dL.

And the Activity [21]?
Its Activity is “Active”.

And the Activity [22]?
The Activity was “Active”.

What about the Activity [23] of the same compound?
Its Activity is “Active”.

What about the Activity [24] of the same compound?
Its Activity is “Toxic”.

And the Activity [25]?
The Activity was 92.9%.

And the Activity [26]?
The Activity was 279.8 to 286.6 mmol/L.

And the Activity [27]?
Its Activity is 23.62 - 27.3 mS/cm.

With O=c1c(O)c(-c2ccc(O)cc2)oc2cc(O)cc(O)c12 [KAEMPFEROL] as the compound, how does the Activity [28] read?
Its Activity is “inactive”.

What about the Activity [29] of the same compound?
The Activity was “inactive”.

What about the Activity [30] of the same compound?
The Activity was “Non-Toxic”.

And the Activity [31]?
The Activity was “inactive”.

And the Activity [32]?
Its Activity is “inactive”.

And the Activity [33]?
Its Activity is “inactive”.

Which Activity [34] does the source give for O=C([O-])CC(O)(CC(=O)[O-])C(=O)[O-].[K+].[K+].[K+] [POTASSIUM CITRATE ANHYDROUS] here?
Its Activity is 70.41%.

What about the Activity [35] of the same compound?
Its Activity is 64.85%.

And the Activity [36]?
Its Activity is 65.02%.

What about the Activity [37] of the same compound?
Its Activity is 81.73%.

Which pH [38] does the source give for NS(=O)(=O)c1cc(C(=O)O)c(NCc2ccco2)cc1Cl [FUROSEMIDE] here?
Its pH is 6.12.

Source: ChEMBL document CHEMBL4619763 (J Nat Prod, 2020)
